# Assay results from US12576050B2, “Dosage regime” (priority 2018, dated 2026).
# Experiments:
# [1] = test system: people with CF experiencing an acute exacerbation; test: CARE-CF-1 trial: PROM CFRSD-CRISS score; type: in vivo; details: for CFRSD-CRISS score, Day 7 LSMD (cysteamine − placebo) / CFRSD-CRISS score, Day 14 LSMD (cysteamine − placebo): MMRM, ITT
# [2] = test system: people with CF experiencing an acute exacerbation; test: CARE-CF-1 trial: PROM CFQ-R score; type: in vivo; details: 450 doses, day 14; greatest for 450 BID
# [3] = test system: Gram −ve organisms in sputum; test: CARE-CF-1 trial: sputum bacterial load; type: in vivo, people with CF; details: for Sputum Gram −ve organisms, Day 21 change from baseline, mean: 14 day course; for Sputum Gram −ve organisms, Day 14 LSMD (cysteamine − placebo): MMRM, ITT; for Sputum Gram −ve organisms, D 14 mean: with standard of care
# [4] = test system: P. aeruginosa isolated from sputum from a CF patient; test: Alginate production by sputum isolates (Alcian Blue assay); type: cell-based
# Procedure: Isolate A produced 19.93 μg/ml (+/−1.9 SD) alginate and had mucoid phenotype. Isolate B produced 4.47 μg/ml (+/−2.39 SD) with dry colonies.
# Results provided in FIG. 5 were derived from a study that conforms to the general quantitative assay described in J. Phycol. 13, 345-348 (1977) “Alcian Blue: A Quantitative Aqueous Assay for Algal Acid and Sulfated Polysaccharides”; J Ramus.
# [5] = test system: blood leukocytes; test: CARE-CF-1 trial: blood leukocyte count (WCC); type: in vivo, people with CF
# [6] = test system: CF patient; test: Single patient treated with cysteamine 450 mg bi-daily plus antibiotics; type: in vivo; details: cysteamine 450 mg BID with Tobramycin and Colomycin, one patient
# Procedure: Patient trialled with combination treatment of 450 mg bi-daily in combination with antibiotics. […] As a result, the patient was taken off regimen of ceftolozane+tazobactam, Colomycin and Pulmozyme and put onto 14-day course of cysteamine 450 mg BID (bi-daily) with Tobramycin and Colomycin. Patient was discharged from hospital 3-days later.
# [7] = test system: people with CF experiencing an acute exacerbation; details: adjunct to treatment of exacerbations, 14 days
# [8] = test system: P. aeruginosa isolate from CF sputum; test: Kirby Bauer antibiotic disc sensitivity on agar containing cysteamine; type: cell-based
# Source text: Legend: […], I, R=sensitive, intermediate or resistant by interpretive criteria for antibiotic disc sensitivity testing method against P. aeruginosa. No criteria for sulphonamides against P. aeruginosa, however Bactrim/co-trimoxazole sometimes used in CF therefore included here with interpretive criteria for Stenotrophomonas. *=p<0.05 two-way ANOVA Sidak's multiple comparison test.
# As a result, the patient was taken off regimen of ceftolozane+tazobactam, Colomycin and Pulmozyme and put onto 14-day course of cysteamine 450 mg BID (bi-daily) with Tobramycin and Colomycin. Patient was discharged from hospital 3-days later.
smiles,measurement,setting,value
"NCCS [Cysteamine, cysteamine]","CFRSD-CRISS score, Day 7 change from baseline, mean",[1]; 150 mg TID,−11.9
same,"CFRSD-CRISS score, Day 7 LSMD (cysteamine − placebo)","[1]; 150 mg TID, p 0.1991",4.25
same,"CFRSD-CRISS score, Day 14 LSMD (cysteamine − placebo)","[1]; 150 mg TID, p 0.9098",0.57
same,"CFRSD-CRISS score, D 14 mean",[1]; 150 mg tid,32.4
same,"CFRSD-CRISS score, Day 14 change from baseline, mean",[1]; 150 mg tid,−15.5
same,"CFRSD-CRISS score, D 14 Δ −placebo mean","[1]; 150 mg tid, p 0.87",0.8
same,"CFRSD-CRISS score, Day 7 change from baseline, mean",[1]; 300 mg TID,−10.5
same,"CFRSD-CRISS score, Day 7 LSMD (cysteamine − placebo)","[1]; 300 mg TID, p 0.0474",6.48
same,"CFRSD-CRISS score, Day 14 LSMD (cysteamine − placebo)","[1]; 300 mg TID, p 0.6439",2.32
same,"CFRSD-CRISS score, D 14 mean",[1]; 300 mg tid,34.2
same,"CFRSD-CRISS score, Day 14 change from baseline, mean",[1]; 300 mg tid,−14.8
same,"CFRSD-CRISS score, D 14 Δ −placebo mean","[1]; 300 mg tid, p 0.70",1.9
same,"CFRSD-CRISS score, Day 7 change from baseline, mean",[1]; 450 mg BID,−19.1
same,"CFRSD-CRISS score, Day 14 LSMD (cysteamine − placebo)","[1]; 450 mg BID, p 0.0496",−9.85
same,"CFRSD-CRISS score, Day 7 LSMD (cysteamine − placebo)","[1]; 450 mg BID, p 0.8081",−0.78
same,"CFRSD-CRISS score, Day 7 change from baseline, mean",[1]; 450 mg QD,−18.1
same,"CFRSD-CRISS score, Day 14 LSMD (cysteamine − placebo)","[1]; 450 mg QD, p 0.1814",−7.36
same,"CFRSD-CRISS score, Day 7 LSMD (cysteamine − placebo)","[1]; 450 mg QD, p 0.7569",−1.10
same,"CFRSD-CRISS score, Day 14 LSMD (cysteamine QD/BID − TID)","[1]; 450 mg TDD: 450 mg QD − 150 mg TID, p 0.1725",−7.94
same,"CFRSD-CRISS score, Day 7 change from baseline, mean",[1]; 450 mg TID,−17.8
same,"CFRSD-CRISS score, Day 14 LSMD (cysteamine − placebo)","[1]; 450 mg TID, p 0.2097",−6.27
same,"CFRSD-CRISS score, Day 7 LSMD (cysteamine − placebo)","[1]; 450 mg TID, p 0.7324",1.11
same,Improvements in CFRSD-CRISS domains,[1]; 450 mg bi-daily compared with the other doses (FIG. 6),best improvements
same,"CFRSD-CRISS score, D 14 mean",[1]; 450 mg bid,25.4
same,"CFRSD-CRISS score, Day 14 change from baseline, mean",[1]; 450 mg bid,−28.1
same,"CFRSD-CRISS score, D 14 Δ −placebo mean","[1]; 450 mg bid, p 0.035",−10.6
same,"CFRSD-CRISS score, D 14 mean",[1]; 450 mg qd,26.1
same,"CFRSD-CRISS score, Day 14 change from baseline, mean",[1]; 450 mg qd,−24.3
same,"CFRSD-CRISS score, D 14 Δ −placebo mean","[1]; 450 mg qd, p 0.090",−9.0
same,"CFRSD-CRISS score, D 14 mean",[1]; 450 mg tid,31.6
same,"CFRSD-CRISS score, Day 14 change from baseline, mean",[1]; 450 mg tid,−23.9
same,"CFRSD-CRISS score, D 14 Δ −placebo mean","[1]; 450 mg tid, p 0.34",−4.8
same,"CFRSD-CRISS score, Day 14 LSMD (cysteamine QD/BID − TID)","[1]; 900 mg TDD: 450 mg BID − 300 mg TID, p 0.0222",−12.17
same,CRISS score at day 14 compared with standard of care plus placebo,[1]; 450 BID dose,significant improvement over and above placebo
same,"Potentiation of other antibiotics (CRISS, post-hoc)",[1]; 450 BID versus 900 mg as 3 times 300 mg (FIG. 9),potentiates other antibiotics more than the 300 mg three times a day dosage regime
same,CRISS versus placebo group across all concomitant antibiotics examined,"[1]; 450 dose regimen, including 450 BID, post-hoc",non-significant improvements
same,"CRISS versus placebo, patients not receiving azithromycin","[1]; across all cysteamine treatment regimens, post-hoc",significantly better than placebo
same,CRISS score at day 14 compared with placebo,"[1]; other 450 doses (qd, tid)",non-significant reductions
same,CFQR PROM score,[2],non-significant improvements
same,"Sputum Gram −ve organisms, Day 21 change from baseline, mean",[3]; 150 mg TID,−0.26 log10 CFU/ml
same,"Sputum Gram −ve organisms, Day 14 LSMD (cysteamine − placebo)","[3]; 150 mg TID, p 0.9753",0.03 log10 CFU/ml
same,"Sputum Gram −ve organisms, Day 21 LSMD (cysteamine − placebo)","[3]; 150 mg TID, p 0.9511",0.05 log10 CFU/ml
same,"Sputum Gram −ve organisms, Day 14 change from baseline, mean",[3]; 150 mg tid,−1.24 log10 CFU/ml
same,"Sputum Gram −ve organisms, D 14 mean",[3]; 150 mg tid for 14 days,5.08 log10 CFU/ml
same,"Sputum Gram −ve organisms, D 14 Δ −placebo mean","[3]; 150 mg tid, p 0.97",0.03 log10 CFU/ml
same,"Sputum Gram −ve organisms, Day 21 change from baseline, mean",[3]; 300 mg TID,−0.87 log10 CFU/ml
same,"Sputum Gram −ve organisms, Day 14 LSMD (cysteamine − placebo)","[3]; 300 mg TID, p 0.3683",0.82 log10 CFU/ml
same,"Sputum Gram −ve organisms, Day 21 LSMD (cysteamine − placebo)","[3]; 300 mg TID, p 0.7802",−0.24 log10 CFU/ml
same,"Sputum Gram −ve organisms, Day 14 change from baseline, mean",[3]; 300 mg tid,−0.98 log10 CFU/ml
same,"Sputum Gram −ve organisms, D 14 mean",[3]; 300 mg tid for 14 days,6.14 log10 CFU/ml
same,"Sputum Gram −ve organisms, D 14 Δ −placebo mean","[3]; 300 mg tid, p 0.36",0.87 log10 CFU/ml
same,"Sputum Gram −ve organisms, Day 21 change from baseline, mean",[3]; 450 mg BID,−1.04 log10 CFU/ml
same,"Sputum Gram −ve organisms, Day 14 LSMD (cysteamine − placebo)","[3]; 450 mg BID, p 0.4165",0.72 log10 CFU/ml
same,"Sputum Gram −ve organisms, Day 21 LSMD (cysteamine − placebo)","[3]; 450 mg BID, p 0.6117",−0.41 log10 CFU/ml
same,"Sputum Gram −ve organisms, Day 21 change from baseline, mean",[3]; 450 mg QD,−1.22 log10 CFU/ml
same,"Sputum Gram −ve organisms, Day 14 LSMD (cysteamine − placebo)","[3]; 450 mg QD, p 0.4445",0.72 log10 CFU/ml
same,"Sputum Gram −ve organisms, Day 21 LSMD (cysteamine − placebo)","[3]; 450 mg QD, p 0.0799",−1.56 log10 CFU/ml
same,"Sputum Gram −ve organisms, Day 14 LSMD (cysteamine QD/BID − TID)",[3]; 450 mg TDD: 450 mg QD − 150 mg TID,0.69 log10 CFU/ml
same,"Sputum Gram −ve organisms, Day 21 change from baseline, mean",[3]; 450 mg TID,0.93 log10 CFU/ml
same,"Sputum Gram −ve organisms, Day 14 LSMD (cysteamine − placebo)","[3]; 450 mg TID, p 0.0602",1.57 log10 CFU/ml
same,"Sputum Gram −ve organisms, Day 21 LSMD (cysteamine − placebo)","[3]; 450 mg TID, p 0.2130",0.99 log10 CFU/ml
same,"Sputum Gram −ve organisms, Day 14 change from baseline, mean",[3]; 450 mg bid,−1.32 log10 CFU/ml
same,"Sputum Gram −ve organisms, D 14 mean",[3]; 450 mg bid for 14 days,6.25 log10 CFU/ml
same,"Sputum Gram −ve organisms, D 14 Δ −placebo mean","[3]; 450 mg bid, p 0.61",0.46 log10 CFU/ml
same,"Sputum Gram −ve organisms, Day 14 change from baseline, mean",[3]; 450 mg qd,0.12 log10 CFU/ml
same,"Sputum Gram −ve organisms, D 14 mean",[3]; 450 mg qd for 14 days,4.49 log10 CFU/ml
same,"Sputum Gram −ve organisms, D 14 Δ −placebo mean","[3]; 450 mg qd, p 0.36",0.90 log10 CFU/ml
same,"Sputum Gram −ve organisms, Day 14 change from baseline, mean",[3]; 450 mg tid,0.33 log10 CFU/ml
same,"Sputum Gram −ve organisms, D 14 mean",[3]; 450 mg tid for 14 days,6.27 log10 CFU/ml
same,"Sputum Gram −ve organisms, D 14 Δ −placebo mean","[3]; 450 mg tid, p 0.059",1.66 log10 CFU/ml
same,"Sputum Gram −ve organisms, Day 14 LSMD (cysteamine QD/BID − TID)",[3]; 900 mg TDD: 450 mg BID − 300 mg TID,−0.11 log10 CFU/ml
same,Production of alginate/extracellular polysaccharide in mucoid strains,[4]; exposure to cysteamine,inhibited
same,Alginate production,"[4]; isolate B, day 14 of 450 mg BID cysteamine, 120 h growth in MHB at 37° C., day 0 isolate A 19.93 μg/ml, mucoid",4.47 µg/mL
same,Colony phenotype of isolate,"[4]; isolate B, day 14 of 450 mg BID cysteamine, day 0 isolate mucoid",dry colonies
same,"Blood Leukocyte Count, D 14 mean",[5]; 150 mg tid,9.71e+09 L⁻¹
same,"Blood Leukocyte Count, D 14 Δbaseline mean",[5]; 150 mg tid,-2.64e+09 L⁻¹
same,"Blood Leukocyte Count, D 14 Δ −placebo mean","[5]; 150 mg tid, p 1.00",0 L⁻¹
same,"Blood Leukocyte Count, D 14 mean",[5]; 300 mg tid,1.055e+10 L⁻¹
same,"Blood Leukocyte Count, D 14 Δbaseline mean",[5]; 300 mg tid,-1.9e+08 L⁻¹
same,"Blood Leukocyte Count, D 14 Δ −placebo mean","[5]; 300 mg tid, p 0.84",-2.4e+08 L⁻¹
same,"Blood Leukocyte Count, D 14 mean",[5]; 450 mg bid,7.45e+09 L⁻¹
same,"Blood Leukocyte Count, D 14 Δbaseline mean",[5]; 450 mg bid,-3.41e+09 L⁻¹
same,"Blood Leukocyte Count, D 14 Δ −placebo mean","[5]; 450 mg bid, p 0.033",-2.43e+09 L⁻¹
same,"Blood Leukocyte Count, D 14 mean",[5]; 450 mg qd,8.52e+09 L⁻¹
same,"Blood Leukocyte Count, D 14 Δbaseline mean",[5]; 450 mg qd,-2.22e+09 L⁻¹
same,"Blood Leukocyte Count, D 14 Δ −placebo mean","[5]; 450 mg qd, p 0.22",-1.49e+09 L⁻¹
same,"Blood Leukocyte Count, D 14 mean",[5]; 450 mg tid,9.79e+09 L⁻¹
same,"Blood Leukocyte Count, D 14 Δbaseline mean",[5]; 450 mg tid,-4.06e+09 L⁻¹
same,"Blood Leukocyte Count, D 14 Δ −placebo mean","[5]; 450 mg tid, p 0.33",-1.11e+09 L⁻¹
same,Time to discharge from hospital,[6],3 days
same,Safety and tolerability,[7],safe and reasonably well tolerated
same,Zone of clearance and sensitivity to sulphonamides,[8]; Müller Hinton agar containing cysteamine compared with agar alone,significant increase
same,Sensitivity to various antibiotics in combination with cysteamine,"[8]; in vitro, patient isolate (FIG. 8)",increased sensitivity
